Measurements as given in patent US20130089599A1, “NANO-ENCAPSULATED THERAPEUTICS FOR CONTROLLED TREATMENT OF INFECTION AND OTHER DISEASES” (The United States of America as Represented by the …, priority 2011, published 2013).
In brackets after ≈: the same amount, converted by molar mass.

Tests used:
A. bumannii = test: in vitro antibacterial activity (MIC50); type: cell-based; conditions: for Amount of Antimicrobial Agent required for Inhibition / MIC50 / in vitro antibacterial activity of individual antibiotic (MIC50): A. bumannii; for reduction of MIC50 of Rifampicin in cocktail with silver (control = 1) / reduction of MIC50 of Tobramycin in cocktail with silver (control = 1): A. baumannii
P. aeruginosa [1] = test: in vitro antibacterial activity (MIC50); type: cell-based
P. mirabilis = test: in vitro antibacterial activity (MIC50); type: cell-based
S. aureus [2] = test: in vitro antibacterial activity (MIC50); type: cell-based; conditions: for MIC50: Staphylococcus aureus
[3] = system: 4 bacterial strains (A. bumannii, P. aeruginosa, P. mirabilis and S. aureus); test: in vitro antibacterial activity (MIC50), summary over strains; type: cell-based; conditions: against all 4 bacterial strains
A. baumannii [4] = test: effect of storage time on antibiotic functionality; type: physicochemical; conditions: 1 mg/ml solution stored at 37° C., day 0 to day 35
Method: The effect of storage time on antibiotic functionality of tobramycin and rifampicin against A. baumannii were also tested. Tobramycin and rifampicin solutions (1 mg/ml in water and DMSO, respectively) were kept at room temperature (24° C.) or 37° C. for up to 35 days, and the antimicrobial activities of the antibiotics at different time points were tested by applying the antibiotics to A. Baumannii. MIC50 were determined and compared. […] P values for tobramycin and rifampicin (from day 0 to day 35) are 0.593 and 0.442 respectively (FIG. 3)

A. baumannii [5] = test: MIC50 for inhibition ring formation (MICfir), agar plate; type: cell-based; conditions: Acinetobacter baumannii; A.b; read-out: 50% minimum inhibitory concentrations (MIC50) needed for growth ring formation
P. aeruginosa [6] = test: as above; type: cell-based; conditions: Pseudomonas aeruginosa; P.a; read-out: 50% minimum inhibitory concentrations (MIC50) needed for growth ring formation
P.m = test: as above; type: cell-based; conditions: Proteus mirabilis, read-out: 50% minimum inhibitory concentrations (MIC50) needed for growth ring formation
S. aureus [7] = test: as above; type: cell-based; conditions: Staphylococcus aureus; S.a; read-out: 50% minimum inhibitory concentrations (MIC50) needed for growth ring formation
[8] = system: S. aureus methicillin resistant strain; test: as above; type: cell-based; conditions: Staphylococcus aureus, MRSA; read-out: 50% minimum inhibitory concentrations (MIC50) needed for growth ring formation
K. pneumoniae = test: as above; type: cell-based; conditions: Klebsiella pneumoniae; K.p; read-out: 50% minimum inhibitory concentrations (MIC50) needed for growth ring formation

## NC[C@H]1O[C@H](O[C@H]2[C@H](O)[C@@H](O[C@H]3O[C@H](CO)[C@@H](O)[C@H](N)[C@H]3O)[C@H](N)C[C@@H]2N)[C@H](N)C[C@@H]1O [Tobramycin]
A. bumannii
  Amount of Antimicrobial Agent required for Inhibition: 1.05 ± 0.02 mg/mL
  MIC50: ≤ 0.001 mg/mL
  in vitro antibacterial activity of individual antibiotic (MIC50): 1.05 ± 0.02 mg/mL
P. aeruginosa [1]
  Amount of Antimicrobial Agent required for Inhibition: 0.44 ± 0.12 mg/mL
  in vitro antibacterial activity of individual antibiotic (MIC50): 0.44 ± 0.12 mg/mL
P. mirabilis
  Amount of Antimicrobial Agent required for Inhibition: 7.2 ± 0.73 mg/mL
  in vitro antibacterial activity of individual antibiotic (MIC50): 7.2 ± 0.73 mg/mL
S. aureus [2]
  MIC50: ≤ 0.001 mg/mL
[3]
  MIC50: < 0.01 mg/mL
A. baumannii [4]
  change of MIC50 on storage (antibiotic functionality): no significantly change
A. baumannii [5]
  MIC50: 0.0071 ± 0.0005 mg/mL (≈ 15.2 µM)
P. aeruginosa [6]
  MIC50: 0.0056 ± 0.0002 mg/mL (≈ 12 µM)
P.m
  MIC50: 0.0031 ± 0.0002 mg/mL (≈ 6.63 µM)
S. aureus [7]
  MIC50: 2.2 ± 0.16 µg/mL (≈ 4.71 µM)
[8]
  MIC50: > 200 µg/mL
K. pneumoniae
  MIC50: 0.00038 ± 5e-05 mg/mL (≈ 0.813 µM)

## CN[C@H](CC(C)C)C(=O)N[C@H]1C(=O)N[C@@H](CC(N)=O)C(=O)N[C@H]2C(=O)N[C@H]3C(=O)N[C@H](C(=O)N[C@H](C(=O)O)c4cc(O)cc(O)c4-c4cc3ccc4O)[C@H](O)c3ccc(c(Cl)c3)Oc3cc2cc(c3O[C@@H]2O[C@H](CO)[C@@H](O)[C@H](O)[C@H]2O[C@H]2C[C@](C)(N)[C@H](O)[C@H](C)O2)Oc2ccc(cc2Cl)[C@H]1O [Vancomycin]
A. bumannii
  Amount of Antimicrobial Agent required for Inhibition: 79.4 ± 4.1 mg/mL
  in vitro antibacterial activity of individual antibiotic (MIC50): 79.4 ± 4.1 mg/mL
P. aeruginosa [1]
  Amount of Antimicrobial Agent required for Inhibition: >1000 mg/mL
  in vitro antibacterial activity of individual antibiotic (MIC50): >1000 mg/mL
P. mirabilis
  Amount of Antimicrobial Agent required for Inhibition: >1000 mg/mL
  in vitro antibacterial activity of individual antibiotic (MIC50): >1000 mg/mL

## [Ag+] [Silver Ion]
A. bumannii
  Amount of Antimicrobial Agent required for Inhibition: 1.52 ± 0.73 mg/mL
A. bumannii; Silver Ion at Mic 12.5
  reduction of MIC50 of Rifampicin in cocktail with silver (control = 1): 1.73 fold
  reduction of MIC50 of Tobramycin in cocktail with silver (control = 1): 2 fold
A. bumannii; Silver Ion at Mic 25
  reduction of MIC50 of Rifampicin in cocktail with silver (control = 1): 3.6 fold
  reduction of MIC50 of Tobramycin in cocktail with silver (control = 1): 4.2 fold
A. bumannii; Silver Ion at Mic 50
  reduction of MIC50 of Rifampicin in cocktail with silver (control = 1): 9 fold
P. aeruginosa [1]
  Amount of Antimicrobial Agent required for Inhibition: 5.34 ± 3.07 mg/mL
P. aeruginosa [1]; Silver Ion at Mic 12.5
  reduction of MIC50 of Rifampicin in cocktail with silver (control = 1): 1.6 fold
  reduction of MIC50 of Tobramycin in cocktail with silver (control = 1): 1.6 fold
P. aeruginosa [1]; Silver Ion at Mic 25
  reduction of MIC50 of Rifampicin in cocktail with silver (control = 1): 4.1 fold
  reduction of MIC50 of Tobramycin in cocktail with silver (control = 1): 4.1 fold
P. aeruginosa [1]; Silver Ion at Mic 50
  reduction of MIC50 of Rifampicin in cocktail with silver (control = 1): 10.4 fold
  reduction of MIC50 of Tobramycin in cocktail with silver (control = 1): 10.4 fold
P. mirabilis
  Amount of Antimicrobial Agent required for Inhibition: 4.56 ± 1.49 mg/mL
P. mirabilis; Silver Ion at Mic 12.5
  reduction of MIC50 of Rifampicin in cocktail with silver (control = 1): 0.74 fold
  reduction of MIC50 of Tobramycin in cocktail with silver (control = 1): 0.74 fold
P. mirabilis; Silver Ion at Mic 25
  reduction of MIC50 of Rifampicin in cocktail with silver (control = 1): 2.4 fold
  reduction of MIC50 of Tobramycin in cocktail with silver (control = 1): 2.5 fold
P. mirabilis; Silver Ion at Mic 50
  reduction of MIC50 of Rifampicin in cocktail with silver (control = 1): 6.3 fold
  reduction of MIC50 of Tobramycin in cocktail with silver (control = 1): 6.5 fold
S. aureus [2]; Silver Ion at Mic 12.5
  reduction of MIC50 of Rifampicin in cocktail with silver (control = 1): 1 fold
  reduction of MIC50 of Tobramycin in cocktail with silver (control = 1): 1.13 fold
S. aureus [2]; Silver Ion at Mic 25
  reduction of MIC50 of Rifampicin in cocktail with silver (control = 1): 9.3 fold
  reduction of MIC50 of Tobramycin in cocktail with silver (control = 1): 9.3 fold
S. aureus [2]; Silver Ion at Mic 50
  reduction of MIC50 of Rifampicin in cocktail with silver (control = 1): 21 fold
  reduction of MIC50 of Tobramycin in cocktail with silver (control = 1): 21 fold

## CO[C@H]1/C=C/O[C@@]2(C)Oc3c(C)c(O)c4c(O)c(c(/C=N/N5CCN(C)CC5)c(O)c4c3C2=O)NC(=O)/C(C)=C\C=C\[C@H](C)[C@H](O)[C@@H](C)[C@@H](O)[C@@H](C)[C@H](OC(C)=O)[C@@H]1C [Rifampicin]
A. bumannii
  Amount of Antimicrobial Agent required for Inhibition: 0.085 ± 0.01 mg/mL
  MIC50: ≤ 0.001 mg/mL
  in vitro antibacterial activity of individual antibiotic (MIC50): 0.085 ± 0.01 mg/mL
P. aeruginosa [1]
  Amount of Antimicrobial Agent required for Inhibition: 19.08 ± 6.14 mg/mL
  in vitro antibacterial activity of individual antibiotic (MIC50): 19.08 ± 6.14 mg/mL
P. mirabilis
  Amount of Antimicrobial Agent required for Inhibition: 3.77 ± 0.92 mg/mL
  in vitro antibacterial activity of individual antibiotic (MIC50): 3.77 ± 0.92 mg/mL
S. aureus [2]
  MIC50: ≤ 0.001 mg/mL
[3]
  MIC50: < 0.01 mg/mL
A. baumannii [5]
  MIC50: 0.045 ± 0.0026 mg/mL (≈ 54.7 µM)
P. aeruginosa [6]
  MIC50: 0.185 ± 0.0158 mg/mL (≈ 225 µM)
P.m
  MIC50: 0.026 ± 0.0035 mg/mL (≈ 31.6 µM)
S. aureus [7]
  MIC50: 0.02 ± 0.001 µg/mL (≈ 0.0243 µM)
[8]
  MIC50: 0.02 ± 0.001 µg/mL (≈ 0.0243 µM)
K. pneumoniae
  MIC50: 0.045 ± 0.0036 mg/mL (≈ 54.7 µM)

## CCC[C@@H]1C[C@@H](C(=O)N[C@@H]([C@H]2O[C@H](SC)[C@H](O)[C@@H](O)[C@H]2O)[C@H](C)Cl)N(C)C1 [Clindamycin]
A. bumannii
  Amount of Antimicrobial Agent required for Inhibition: 2.72 ± 0.68 mg/mL
  in vitro antibacterial activity of individual antibiotic (MIC50): 2.72 ± 0.68 mg/mL
P. aeruginosa [1]
  Amount of Antimicrobial Agent required for Inhibition: >1000 mg/mL
  in vitro antibacterial activity of individual antibiotic (MIC50): >1000 mg/mL
P. mirabilis
  Amount of Antimicrobial Agent required for Inhibition: 23.88 ± 8.43 mg/mL
  in vitro antibacterial activity of individual antibiotic (MIC50): 23.88 ± 8.43 mg/mL

## C[C@@H](O)[C@H]1C(=O)N2C(C(=O)O)=C(SCCN=CN)C[C@H]12 [Imipenem]
A. bumannii
  Amount of Antimicrobial Agent required for Inhibition: 10.25 ± 2.33 mg/mL
  in vitro antibacterial activity of individual antibiotic (MIC50): 10.25 ± 2.33 mg/mL
P. aeruginosa [1]
  Amount of Antimicrobial Agent required for Inhibition: 0.91 ± 0.56 mg/mL
  in vitro antibacterial activity of individual antibiotic (MIC50): 0.91 ± 0.56 mg/mL
P. mirabilis
  Amount of Antimicrobial Agent required for Inhibition: 1.02 ± 0.01 mg/mL
  in vitro antibacterial activity of individual antibiotic (MIC50): 1.02 ± 0.01 mg/mL
[3]
  MIC50: < 0.01 mg/mL
